From PubChem BioAssay (NCI)
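Cells were grown in 96-well plates and exposed to each compound for 48 hours at five concentrations; endpoints were interpolated linearly between bracketing concentrations, or set to the highest concentration if not reached. At the TGI there is no net growth.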

Tests used:
Assay in all cases: NCI tumour cell line growth inhibition, 48 h
[1] = tested on: SK-MEL-2 melanoma
[2] = tested on: TK-10 renal
[3] = tested on: RXF 393 renal
[4] = tested on: SF-295 CNS
[5] = tested on: COLO 205 colon
[6] = tested on: RXF-631 renal
[7] = tested on: ACHN renal
[8] = tested on: DLD-1 colon
[9] = tested on: M14 melanoma
[10] = tested on: HOP-18 NSCLC
[11] = tested on: KM12 colon
[12] = tested on: HCT-116 colon
[13] = tested on: M19-MEL melanoma
[14] = tested on: CAKI-1 renal
[15] = tested on: SW-620 colon
[16] = tested on: SF-539 CNS
[17] = tested on: CCRF-CEM leukemia
[18] = tested on: HT29 colon
[19] = tested on: SK-MEL-5 melanoma
[20] = tested on: UACC-257 melanoma
[21] = tested on: MALME-3M melanoma
[22] = tested on: UACC-62 melanoma
[23] = tested on: OVCAR-3 ovarian
[24] = tested on: UO-31 renal
[25] = tested on: HOP-62 NSCLC
[26] = tested on: NCI-H23 lung
[27] = tested on: NCI-H226 lung
[28] = tested on: EKVX NSCLC
[29] = tested on: HL-60(TB) leukemia
[30] = tested on: IGROV1 ovarian
[31] = tested on: OVCAR-8 ovarian
[32] = tested on: A498 renal
[33] = tested on: SNB-19 CNS
[34] = tested on: HCT-15 colon
[35] = tested on: OVCAR-4 ovarian
[36] = tested on: RPMI-8226 leukemia
[37] = tested on: 786-0 renal
[38] = tested on: LOX IMVI melanoma
[39] = tested on: NCI-H460 lung
[40] = tested on: SK-MEL-28 melanoma
[41] = tested on: HCC-2998 colon
[42] = tested on: OVCAR-5 ovarian
[43] = tested on: SK-OV-3 ovarian
[44] = tested on: SNB-78 CNS
[45] = tested on: LXFL 529 NSCLC
[46] = tested on: SF-268 CNS
[47] = tested on: K-562 leukemia
[48] = tested on: KM20L2 colon
[49] = tested on: A549 NSCLC
[50] = tested on: DMS 114 small cell lung
[51] = tested on: HOP-92 NSCLC
[52] = tested on: SNB-75 CNS
[53] = tested on: SN12C renal
[54] = tested on: MOLT-4 leukemia
[55] = tested on: U251 CNS
[56] = tested on: NCI-H522 lung
[57] = tested on: DMS 273 small cell lung
[58] = tested on: XF 498 CNS
[59] = tested on: SR leukemia

## COC(=O)C(C(=O)C(=O)Nc1cccc(O)c1)c1nc2ccc(Cl)cc2[nH]c1=O (stereo not drawn)
[1]
  TGI: > 100 µM
[2]
  TGI: > 100 µM
[3]
  TGI: > 100 µM
[4]
  TGI: > 100 µM
[5]
  TGI: > 100 µM
[6]
  TGI: > 100 µM
[7]
  TGI: > 100 µM
[8]
  TGI: > 100 µM
[9]
  TGI: > 100 µM
[10]
  TGI: > 100 µM
[11]
  TGI: > 100 µM
[12]
  TGI: > 100 µM
[13]
  TGI: > 100 µM
[14]
  TGI: > 100 µM
[15]
  TGI: > 100 µM
[16]
  TGI: > 100 µM
[17]
  TGI: > 100 µM
[18]
  TGI: > 100 µM
[19]
  TGI: > 100 µM
[20]
  TGI: > 100 µM
[21]
  TGI: > 100 µM
[22]
  TGI: > 100 µM
[23]
  TGI: > 100 µM
[24]
  TGI: > 100 µM
[25]
  TGI: > 100 µM
[26]
  TGI: > 100 µM
[27]
  TGI: > 100 µM
[28]
  TGI: > 100 µM
[29]
  TGI: > 100 µM
[30]
  TGI: > 100 µM
[31]
  TGI: > 100 µM
[32]
  TGI: > 100 µM
[33]
  TGI: > 100 µM
[34]
  TGI: > 100 µM
[35]
  TGI: > 100 µM
[36]
  TGI: > 100 µM
[37]
  TGI: > 100 µM
[38]
  TGI: > 100 µM
[39]
  TGI: > 100 µM
[40]
  TGI: > 100 µM
[41]
  TGI: > 100 µM
[42]
  TGI: > 100 µM
[43]
  TGI: > 100 µM
[44]
  TGI: > 100 µM
[45]
  TGI: > 100 µM
[46]
  TGI: > 100 µM
[47]
  TGI: > 100 µM
[48]
  TGI: > 100 µM
[49]
  TGI: > 100 µM
[50]
  TGI: > 100 µM
[51]
  TGI: > 100 µM
[52]
  TGI: > 100 µM
[53]
  TGI: > 100 µM
[54]
  TGI: > 100 µM
[55]
  TGI: > 100 µM

## COc1ccc2c(=O)c([Se]c3coc4cc(OC)ccc4c3=O)coc2c1
[1]
  TGI: > 100 µM
[2]
  TGI: > 100 µM
[3]
  TGI: > 100 µM
[4]
  TGI: > 100 µM
[5]
  TGI: > 100 µM
[7]
  TGI: > 100 µM
[8]
  TGI: > 100 µM
[56]
  TGI: > 100 µM
[9]
  TGI: 37.5 µM
[10]
  TGI: > 100 µM
[11]
  TGI: > 100 µM
[12]
  TGI: 44.1 µM
[13]
  TGI: > 100 µM
[14]
  TGI: > 100 µM
[15]
  TGI: > 100 µM
[16]
  TGI: > 100 µM
[57]
  TGI: > 100 µM
[17]
  TGI: > 100 µM
[18]
  TGI: > 100 µM
[19]
  TGI: > 100 µM
[20]
  TGI: > 100 µM
[21]
  TGI: > 100 µM
[58]
  TGI: > 100 µM
[22]
  TGI: > 100 µM
[59]
  TGI: > 100 µM
[23]
  TGI: > 100 µM
[24]
  TGI: > 100 µM
[25]
  TGI: > 100 µM
[26]
  TGI: > 100 µM
[27]
  TGI: > 100 µM
[28]
  TGI: > 100 µM
[29]
  TGI: > 100 µM
[30]
  TGI: > 100 µM
[31]
  TGI: > 100 µM
[32]
  TGI: > 100 µM
[33]
  TGI: > 100 µM
[34]
  TGI: > 100 µM
[35]
  TGI: > 100 µM
[36]
  TGI: > 100 µM
[37]
  TGI: > 100 µM
[38]
  TGI: > 100 µM
[39]
  TGI: > 100 µM
[40]
  TGI: > 100 µM
[41]
  TGI: > 100 µM
[42]
  TGI: > 100 µM
[43]
  TGI: > 100 µM
[44]
  TGI: 67 µM
[45]
  TGI: > 100 µM
[46]
  TGI: > 100 µM
[47]
  TGI: > 100 µM
[48]
  TGI: > 100 µM
[49]
  TGI: > 100 µM
[50]
  TGI: 42.9 µM
[51]
  TGI: > 100 µM
[52]
  TGI: 87.5 µM
[53]
  TGI: > 100 µM
[54]
  TGI: > 100 µM
[55]
  TGI: > 100 µM
